Test results as given in patent US8158623B2, “Heptacyclic compounds and the pharmaceutical uses thereof for preventing and treating diabetes and metabolic syndrome” (Shanghai Institute of Materia Medica Chinese Academy of …, priority 2007, dated 2012).
Several values for one entry are separate records, joined by “and”; a condition that tells them apart may be missing. Identical values can stand only once. Entries after “also recorded” stand apart in the source; their conditions may differ.

Legend:
ob/ob mice [1] = experiment: Effect of F7 on liver weight, liver triglyceride, ALT and AST; format: in vivo; conditions: oral 50 mg/kg once daily for 3 weeks
Method: Genetic spontaneous diabetes ob/ob mice were purchased from Jackson (USA), and maintained in a SPF facility (temperature: 22-24° C., humidity: 45-80%, illumination: 150-300 Lx, 12/12-hour light/dark cycle). When the mice were 7 weeks old, the ob/ob mice were grouped into the treatment group and the control group (9 animals per group) according to the fasting blood glucose. The two groups were administered orally with compound F7 (50 mg/kg) and a solution of 0.1% Tween 80 respectively, once daily for 3 weeks. After 3 weeks, the animals were sacrificed and the liver was excised and weighed.
The triglyceride level in the liver was measured.

ob/ob mice [2] = experiment: Fasting blood glucose in ob/ob mice, several heptacyclic compounds, 8 days; format: in vivo
Method: Genetic spontaneous diabetes ob/ob mice were purchased from Jackson (USA), and maintained in a SPF facility (temperature: 22-24° C., humidity: 45-80%, illumination: 150-300 Lx, 12/12-hour light/dark cycle). Fasting blood glucose was determined for 3 days continuously when the mice were 7 weeks old. The mice were grouped into the treatment group and the control group (6 animals per group) according to the results determined. The treatment groups were administered orally with compound E9, G0 and F7 (psoromic acid) (100 mg/kg), and the control group was administered orally with a solution of 0.1% Tween 80 (blank control), once daily for 8 days. Fasting blood glucose in mice was determined at the end of experiment.

[3] = system: AMP-Activated Protein Kinase (AMPK); experiment: Phosphorylation of AMPK in HepG2 cell (Western blot); format: cell-based, Human; conditions: HepG2, 50 uM, 5 minutes, P<0.01 or P<0.05
Summary of the method: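 HepG2 cells were serum-starved 6 h in MEM with 0.5% BSA, then treated with compound at 50 uM final (0.25% DMSO) for 5 min, with DMSO as control. Lysates (15 μg/lane) were immunoblotted for phospho-AMPK and phospho-ACC with ECL detection. Band grey levels, normalized to an internal standard, are expressed relative to the normal group set as 1.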

[4] = Properties of psoromic acid (solubility, acidity, stability); format: physicochemical
Method: As a preferred embodiment of the present invention, the compound of the present invention is psoromic acid, F7, a white needle crystal, which is odorless, faintly bitter, with melting point of 265-266° C.

ob/ob mice [5] = experiment: Hypoglycemic effect of compound F7, fasting blood glucose, 3 weeks; format: in vivo; conditions: oral 50 mg/kg once daily
Method: Genetic spontaneous diabetes ob/ob mice were purchased from Jackson (USA), and maintained in a SPF facility (temperature: 22-24° C., humidity: 45-80%, illumination: 150-300 Lx, 12/12-hour light/dark cycle). Fasting blood glucose was determined for 3 days continuously when the mice were 7 weeks old. The mice were grouped into the treatment group and the control group (8 animals per group) according to the results determined. The two groups were administered orally with compound F7 (50 mg/kg) and a solution of 0.1% Tween 80 respectively, once daily for 3 weeks. Fasting Blood Glucose levels of mice were measured regularly.

COc1cc(C(=O)O)c2c(c1C)OC(=O)c1c(C)cc(O)c(C=O)c1O2 [Compound F7, 4-Formyl-3-hydroxy-8-methoxy-1,9-dimethyl-11-oxo-11H-dibenzo[b,e][1,4]dioxepine-6-carboxylic acid]
Liver TG (ob/ob mice [1]): 106.9 ± 35.6 µmol/g
Liver Weight (ob/ob mice [1]): 2.67 ± 0.57 g
Weight of other organs or its ratio to body weight (ob/ob mice [1]): no effect
ALT (ob/ob mice [1]; serum): 161.5 ± 28.4 U/L
AST (ob/ob mice [1]; serum): 197.3 ± 24.6 U/L
Fasting Blood Glucose (ob/ob mice [2]; before administration): 11.94 ± 1.50 mM
Fasting blood glucose change in words (ob/ob mice [2]; dosed continuously for 8 days, P<0.05): reduced statistically significant
Fasting Blood Glucose (ob/ob mice [2]; oral 100 mg/kg once daily, after 8 days treatment): 8.12 ± 1.04 mM
Level of phosphorylation for AMPK protein versus DMSO control [3]: significant up-regulation; also recorded: increased significantly
Solubility in organic solvents ([4]; DMSO, ethanol, acetone and ethyl acetate): soluble in organic solvents
pH (acidic) ([4]; in water): 3-4
Stability ([4]; room temperature): stable at room temperature
Solubility in water ([4]; water): slightly soluble in water
Fasting Blood Glucose (ob/ob mice [5]; 0 day): 14.0 ± 1.8 mM
Fasting Blood Glucose (ob/ob mice [5]; 4 day): 11.3 ± 2.5 mM
Fasting Blood Glucose (ob/ob mice [5]; 8 day): 11.1 ± 2.0 mM
Fasting Blood Glucose (ob/ob mice [5]; 11 day): 8.8 ± 1.5 mM
Fasting Blood Glucose (ob/ob mice [5]; 15 day): 8.5 ± 2.5 mM
Fasting Blood Glucose (ob/ob mice [5]; 21 day, 50 mg/kg): 7.4 mM and 7.4 ± 1.3 mM
Reduction of fasting blood glucose (ob/ob mice [5]; day 15 after administration): 42%
